Measurements as given in PubChem BioAssay (NCI).
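Cells were grown in 96-well plates and exposed to each compound for 48 hours at five concentrations; endpoints were interpolated linearly between bracketing concentrations, or set to the highest concentration if not reached. Here, GI50 denotes the concentration required for 50% inhibition of growth. TGI: total growth inhibition.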

Assays:
Assay in all cases: NCI anticancer screen, dose series, 48 h
SNB-75 CNS = tested on: SNB-75 CNS
HCC-2998 colon = tested on: HCC-2998 colon
UACC-257 melanoma = tested on: UACC-257 melanoma
ACHN renal = tested on: ACHN renal
SK-OV-3 ovarian = tested on: SK-OV-3 ovarian
SK-MEL-28 melanoma = tested on: SK-MEL-28 melanoma
HOP-92 NSCLC = tested on: HOP-92 NSCLC
K-562 leukemia = tested on: K-562 leukemia
MDA-MB-435 = tested on: MDA-MB-435
HL-60(TB) leukemia = tested on: HL-60(TB) leukemia
MDA-MB-231 breast = tested on: MDA-MB-231 breast
SK-MEL-5 melanoma = tested on: SK-MEL-5 melanoma
A549 NSCLC = tested on: A549 NSCLC
SK-MEL-2 melanoma = tested on: SK-MEL-2 melanoma
HCT-15 colon = tested on: HCT-15 colon
SF-539 CNS = tested on: SF-539 CNS
SW-620 colon = tested on: SW-620 colon
SR leukemia = tested on: SR leukemia
EKVX NSCLC = tested on: EKVX NSCLC
NCI-H226 lung = tested on: NCI-H226 lung
PC-3 prostate = tested on: PC-3 prostate
HS 578T breast = tested on: HS 578T breast
IGROV1 ovarian = tested on: IGROV1 ovarian
UACC-62 melanoma = tested on: UACC-62 melanoma
RXF 393 renal = tested on: RXF 393 renal
SF-268 CNS = tested on: SF-268 CNS
M14 melanoma = tested on: M14 melanoma
SNB-19 CNS = tested on: SNB-19 CNS
COLO 205 colon = tested on: COLO 205 colon
KM12 colon = tested on: KM12 colon
NCI-H522 lung = tested on: NCI-H522 lung
MOLT-4 leukemia = tested on: MOLT-4 leukemia
HT29 colon = tested on: HT29 colon
T-47D breast = tested on: T-47D breast
HOP-62 NSCLC = tested on: HOP-62 NSCLC
CAKI-1 renal = tested on: CAKI-1 renal
HCT-116 colon = tested on: HCT-116 colon
DU-145 prostate = tested on: DU-145 prostate
MALME-3M melanoma = tested on: MALME-3M melanoma
OVCAR-3 ovarian = tested on: OVCAR-3 ovarian
OVCAR-5 ovarian = tested on: OVCAR-5 ovarian
A498 renal = tested on: A498 renal
SN12C renal = tested on: SN12C renal
CCRF-CEM leukemia = tested on: CCRF-CEM leukemia
BT-549 breast = tested on: BT-549 breast
OVCAR-8 ovarian = tested on: OVCAR-8 ovarian
UO-31 renal = tested on: UO-31 renal
OVCAR-4 ovarian = tested on: OVCAR-4 ovarian
786-0 renal = tested on: 786-0 renal
RPMI-8226 leukemia = tested on: RPMI-8226 leukemia
TK-10 renal = tested on: TK-10 renal
SF-295 CNS = tested on: SF-295 CNS
U251 CNS = tested on: U251 CNS
LOX IMVI melanoma = tested on: LOX IMVI melanoma
NCI-H460 lung = tested on: NCI-H460 lung
NCI/ADR-RES ovarian = tested on: NCI/ADR-RES ovarian
MCF7 breast = tested on: MCF7 breast
NCI-H23 lung = tested on: NCI-H23 lung

O=C(Nc1cc(Cl)cc(Cl)c1)Nc1ccc2oc(=O)ccc2c1
GI50 (SNB-75 CNS): 2.24 µM
TGI (SNB-75 CNS): 14 µM
GI50 (HCC-2998 colon): 3.24 µM
TGI (HCC-2998 colon): 11.4 µM
GI50 (UACC-257 melanoma): 2.23 µM
TGI (UACC-257 melanoma): 6.78 µM
GI50 (ACHN renal): 3.3 µM
TGI (ACHN renal): 11.2 µM
GI50 (SK-OV-3 ovarian): 2.24 µM
TGI (SK-OV-3 ovarian): 5.7 µM
GI50 (SK-MEL-28 melanoma): 3.71 µM
TGI (SK-MEL-28 melanoma): 13.7 µM
GI50 (HOP-92 NSCLC): 1.86 µM
TGI (HOP-92 NSCLC): 5.52 µM
GI50 (K-562 leukemia): 2.34 µM
TGI (K-562 leukemia): 18 µM
GI50 (MDA-MB-435): 2.77 µM
TGI (MDA-MB-435): 10.2 µM
GI50 (HL-60(TB) leukemia): 1.27 µM
TGI (HL-60(TB) leukemia): 4.43 µM
GI50 (MDA-MB-231 breast): 2.75 µM
TGI (MDA-MB-231 breast): 7.87 µM
GI50 (SK-MEL-5 melanoma): 1.66 µM
TGI (SK-MEL-5 melanoma): 3.11 µM
GI50 (A549 NSCLC): 2.9 µM
TGI (A549 NSCLC): 12.2 µM
GI50 (SK-MEL-2 melanoma): 2.03 µM
TGI (SK-MEL-2 melanoma): 4.84 µM
GI50 (HCT-15 colon): 2.69 µM
TGI (HCT-15 colon): 10.9 µM
GI50 (SF-539 CNS): 2.9 µM
TGI (SF-539 CNS): 8.98 µM
GI50 (SW-620 colon): 3.5 µM
TGI (SW-620 colon): 13.5 µM
GI50 (SR leukemia): 1.98 µM
TGI (SR leukemia): 5.82 µM
GI50 (EKVX NSCLC): 2.87 µM
TGI (EKVX NSCLC): 12.4 µM
GI50 (NCI-H226 lung): 2.67 µM
TGI (NCI-H226 lung): 8.81 µM
GI50 (PC-3 prostate): 1.9 µM
TGI (PC-3 prostate): 11 µM
GI50 (HS 578T breast): 3.14 µM
TGI (HS 578T breast): 14.5 µM
GI50 (IGROV1 ovarian): 3.28 µM
TGI (IGROV1 ovarian): 15.1 µM
GI50 (UACC-62 melanoma): 2.92 µM
TGI (UACC-62 melanoma): 12.3 µM
GI50 (RXF 393 renal): 2.57 µM
TGI (RXF 393 renal): 6.72 µM
GI50 (SF-268 CNS): 3.91 µM
TGI (SF-268 CNS): 17.2 µM
GI50 (M14 melanoma): 3.39 µM
TGI (M14 melanoma): 11.9 µM
GI50 (SNB-19 CNS): 3.73 µM
TGI (SNB-19 CNS): 15.2 µM
GI50 (COLO 205 colon): 2.19 µM
TGI (COLO 205 colon): 4.63 µM
GI50 (KM12 colon): 3.05 µM
TGI (KM12 colon): 10.8 µM
GI50 (NCI-H522 lung): 1.39 µM
TGI (NCI-H522 lung): 4.01 µM
GI50 (MOLT-4 leukemia): 2.32 µM
TGI (MOLT-4 leukemia): 7.31 µM
GI50 (HT29 colon): 2.59 µM
TGI (HT29 colon): 9.86 µM
GI50 (T-47D breast): 1.93 µM
TGI (T-47D breast): 7.5 µM
GI50 (HOP-62 NSCLC): 2.98 µM
TGI (HOP-62 NSCLC): 9.87 µM
GI50 (CAKI-1 renal): 2.28 µM
TGI (CAKI-1 renal): 7.49 µM
GI50 (HCT-116 colon): 2.31 µM
TGI (HCT-116 colon): 8.7 µM
GI50 (DU-145 prostate): 3.87 µM
TGI (DU-145 prostate): 13.8 µM
GI50 (MALME-3M melanoma): 2.64 µM
TGI (MALME-3M melanoma): 7.42 µM
GI50 (OVCAR-3 ovarian): 3.24 µM
TGI (OVCAR-3 ovarian): 13.1 µM
GI50 (OVCAR-5 ovarian): 3.19 µM
TGI (OVCAR-5 ovarian): 12.1 µM
GI50 (A498 renal): 2.59 µM
TGI (A498 renal): 7.07 µM
GI50 (SN12C renal): 2.92 µM
TGI (SN12C renal): 10.6 µM
GI50 (CCRF-CEM leukemia): 2.3 µM
TGI (CCRF-CEM leukemia): 7.62 µM
GI50 (BT-549 breast): 2.86 µM
TGI (BT-549 breast): 9.06 µM
GI50 (OVCAR-8 ovarian): 2.73 µM
TGI (OVCAR-8 ovarian): 11 µM
GI50 (UO-31 renal): 1.94 µM
TGI (UO-31 renal): 7.48 µM
GI50 (OVCAR-4 ovarian): 3.23 µM
TGI (OVCAR-4 ovarian): 14.1 µM
GI50 (786-0 renal): 3.08 µM
TGI (786-0 renal): 11.7 µM
GI50 (RPMI-8226 leukemia): 1.53 µM
TGI (RPMI-8226 leukemia): 4.89 µM
GI50 (TK-10 renal): 3.12 µM
TGI (TK-10 renal): 9.51 µM
GI50 (SF-295 CNS): 2.34 µM
TGI (SF-295 CNS): 6.05 µM
GI50 (U251 CNS): 2.43 µM
TGI (U251 CNS): 7.51 µM
GI50 (LOX IMVI melanoma): 2.04 µM
TGI (LOX IMVI melanoma): 4.66 µM
GI50 (NCI-H460 lung): 2.27 µM
TGI (NCI-H460 lung): 7.39 µM
GI50 (NCI/ADR-RES ovarian): 2.47 µM
TGI (NCI/ADR-RES ovarian): 8.91 µM
GI50 (MCF7 breast): 2.28 µM
TGI (MCF7 breast): 8.09 µM

C#Cc1nc(/C=C\CCCCCCC(=O)NO)cs1
GI50 (NCI-H23 lung): 0.964 µM
TGI (NCI-H23 lung): 2.39 µM
GI50 (SNB-75 CNS): 1.4 µM
TGI (SNB-75 CNS): 4.27 µM
GI50 (HCC-2998 colon): 5.58 µM
TGI (HCC-2998 colon): 18.1 µM
GI50 (ACHN renal): 2.33 µM
TGI (ACHN renal): 6.46 µM
GI50 (SK-OV-3 ovarian): 2.49 µM
TGI (SK-OV-3 ovarian): 7.44 µM
GI50 (SK-MEL-28 melanoma): 3.69 µM
TGI (SK-MEL-28 melanoma): 30.1 µM
GI50 (K-562 leukemia): 2.1 µM
TGI (K-562 leukemia): > 100 µM
GI50 (MDA-MB-435): 2.75 µM
TGI (MDA-MB-435): 11.8 µM
GI50 (MDA-MB-231 breast): 2.59 µM
TGI (MDA-MB-231 breast): 6.25 µM
GI50 (SK-MEL-5 melanoma): 2.38 µM
TGI (SK-MEL-5 melanoma): 6.69 µM
GI50 (A549 NSCLC): 2.94 µM
TGI (A549 NSCLC): 11.4 µM
GI50 (SK-MEL-2 melanoma): 2.72 µM
TGI (SK-MEL-2 melanoma): 8.53 µM
GI50 (HCT-15 colon): 3 µM
TGI (HCT-15 colon): 13.4 µM
GI50 (SW-620 colon): 1.69 µM
TGI (SW-620 colon): 4.2 µM
GI50 (EKVX NSCLC): 5.23 µM
TGI (EKVX NSCLC): > 100 µM
GI50 (NCI-H226 lung): 2.81 µM
TGI (NCI-H226 lung): 9.71 µM
GI50 (PC-3 prostate): 3.41 µM
TGI (PC-3 prostate): 20.1 µM
GI50 (HS 578T breast): 2 µM
TGI (HS 578T breast): 8.41 µM
GI50 (UACC-62 melanoma): 1.35 µM
TGI (UACC-62 melanoma): 3.29 µM
GI50 (RXF 393 renal): 1.72 µM
TGI (RXF 393 renal): 4.14 µM
GI50 (SF-268 CNS): 2.84 µM
TGI (SF-268 CNS): 7.64 µM
GI50 (M14 melanoma): 3.65 µM
TGI (M14 melanoma): 19.9 µM
GI50 (SNB-19 CNS): 3.99 µM
TGI (SNB-19 CNS): 23 µM
GI50 (COLO 205 colon): 1.9 µM
TGI (COLO 205 colon): 3.82 µM
GI50 (KM12 colon): 3.25 µM
TGI (KM12 colon): 11.8 µM
GI50 (NCI-H522 lung): 0.177 µM
TGI (NCI-H522 lung): 0.352 µM
GI50 (HT29 colon): 2.6 µM
TGI (HT29 colon): 7.5 µM
GI50 (T-47D breast): 1.62 µM
TGI (T-47D breast): 4.24 µM
GI50 (HOP-62 NSCLC): 2.67 µM
TGI (HOP-62 NSCLC): 11.4 µM
GI50 (CAKI-1 renal): 1.82 µM
TGI (CAKI-1 renal): 4.27 µM
GI50 (HCT-116 colon): 2.01 µM
TGI (HCT-116 colon): 7.74 µM
GI50 (OVCAR-5 ovarian): 2.63 µM
TGI (OVCAR-5 ovarian): 11.5 µM
GI50 (A498 renal): 1.68 µM
TGI (A498 renal): 3.3 µM
GI50 (SN12C renal): 4.02 µM
TGI (SN12C renal): > 100 µM
GI50 (CCRF-CEM leukemia): 0.329 µM
TGI (CCRF-CEM leukemia): 11.6 µM
GI50 (BT-549 breast): 4.53 µM
TGI (BT-549 breast): 42.5 µM
GI50 (OVCAR-8 ovarian): 2 µM
TGI (OVCAR-8 ovarian): 8.77 µM
GI50 (UO-31 renal): 0.163 µM
TGI (UO-31 renal): 0.318 µM
GI50 (OVCAR-4 ovarian): 2.05 µM
TGI (OVCAR-4 ovarian): 5.77 µM
GI50 (786-0 renal): 0.376 µM
TGI (786-0 renal): 12.6 µM
GI50 (RPMI-8226 leukemia): 1.54 µM
TGI (RPMI-8226 leukemia): 4.96 µM
GI50 (TK-10 renal): 1.68 µM
TGI (TK-10 renal): 6.36 µM
GI50 (U251 CNS): 1.86 µM
TGI (U251 CNS): 3.96 µM
TGI (LOX IMVI melanoma): 0.0231 µM
GI50 (NCI-H460 lung): 2.72 µM
TGI (NCI-H460 lung): 16.4 µM
GI50 (NCI/ADR-RES ovarian): 0.861 µM
TGI (NCI/ADR-RES ovarian): 5.83 µM
GI50 (MCF7 breast): 2.94 µM
TGI (MCF7 breast): > 100 µM
